Results on eleven compounds are retold here after US7772177B2, “BIR domain binding compounds” (Aegera Therapeutics, Inc., priority 2005, dated 2010).

Each structure is given as a SMILES string. Where a name gives a salt, the structure may show the parent alone.

One experiment relates to H460 cells. In words: Combination anti-cancer therapy in vivo with Taxotere, H460 tumors. Also noted: species or system Female CD-1 nude mice. To be noted: cumulative dose of 20 mg/kg, sc per day. As to the method:
Taxotere (30 mg/kg, ip)/Saline (n=9)
Taxotere (30 mg/kg, ip)/compound 56 (2×5 mg/kg, sc) (n=10)
Female CD-1 nude mice (approximately 20-25 g) were subcutaneously injected with 1×10^6 H460 cells in the right flank. Animals were balanced into groups based on tumor size and drug therapy began when tumors were ˜30-50 mm^3. Animals that had no tumor or that were deemed outliers because of excessive tumor size at this time were removed from the study. The remaining animals received Taxotere (or equivalent volume of vehicle) at 30 mg/kg, ip 2 times, one week apart. The compound was given two times per day (at 10 mg/kg, sc, approximately 6 hrs apart), starting at the time of Taxotere, and continuing daily for the duration of the experiment. If dehydration occurred, animals received sc fluids (0.5 ml). Tumor size was measured three times per week. Health assessments were performed at the time of the compound's delivery.

Experiment [1] has as its system selected cell lines in hollow fibers. In words: Hollow fiber in vivo model. Also noted: species or system Nu/Nu CD-1 male mice. To be noted: Method 37, sub-cutaneous route. As to the method:
At day 1, selected cell lines were cultured and the fiber filled at a cell density of about 40,000 cells/fiber. At the day of operation (day 4), three fibers are implanted sub-cutaneous into 28-35 Nu/Nu CD-1 male mice. On day 5, mice start to receive daily injection via sub-cutaneous route of control vehicle or vehicle containing the selected compound at the appropriate concentration and/or injection of cytotoxic agent via intra-peritoneal route. Upon 7 days of non-consecutive treatments, the animals are sacrificed, each fiber is removed and the metabolic viability of the remaining cells determined by MTT assay. Efficacy of the compound is define as the difference between the vehicle-treated animal and the animal treated with the compound alone or the compound given in combination of the cytotoxic agent

A further experiment relates to MDA-MB-231 cells. In words: Survival assay (MTS) on MDA-MB-231 cells. It counts as cell-based. To be noted: Homo sapiens, 72 hours, read-out: EC50 MDA-MB-231 breast derived cell line. As to the method: MDA-MD-231 (breast) and H460 (lung) cancer cells were cultured in RPMI1640 media supplemented with 10% FBS and 100 units/mL of Penicillin and Steptomycin.
(§1) Survival assays were routinely done on MDA-MB-231 and H460 cells. Cells were seeded in 96 well plates at a respective density of 5000 and 2000 cells per well and incubated at 37° C. in presence of 5% CO2 for 24 hours. Selected compounds were diluted into the media at various concentration ranging from 0.01 uM up to 100 uM. Diluted compounds were added onto the MDA-MB-231 cells. For H460 cells, the compounds were added either alone or in presence of 3 ng/ml of TRAIL. After 72 hours cellular viability was evaluated by MTS based assays. A solution of [3-(4,5-dimethylthiazol-2-yl)-5-(3-carboxymethoxyphenyl)-2-(4-sulfophenyl)-2H-tetrazolium, inner salt; MTS] was added onto cells for a period of 1 to 4 hours. Upon incubation the amount of converted MTS was evaluated using a Tecan spectrophotometer set at 570 nm.

A further experiment has as its target T1, GST-XIAP BIR3RING (Homo sapiens, UniProt P98170).
T1 construct: made in house; host or cells: E. coli DH5-alpha
In words: Fluorescence polarization-based competition assay, XIAP Bir3-RING. Format: binding. The method in brief: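 Competitive fluorescence polarization with GST-XIAP BIR3-RING (aa 246-497, E. coli-expressed) and a fluorescein-labelled peptide probe in 50 mM MES pH 6.5 with BSA; protein fixed at titrated linear-signal level. Compound autofluorescence and quenching checked; IC50 from 10-point dilutions, Ki derived by Nikolovska-Coleska equation.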
(Fluorescence polarisation rises when a labelled molecule tumbles more slowly, as on binding a larger partner.)

Experiment [2] addresses T2, caspase-3 inhibited by linker BIR2-BIR3-RING of XIAP (Homo sapiens, UniProt P98170).
T2 construct: made in house; host or cells: E. coli DH5-alpha (GST-XIAP); E. coli AD494 (His-caspase-3)
Description: Caspase-3 linker-BIR2-BIR3-RING derepression assay. Format: biochemical.

The next experiment addresses T3, GST-HIAP1(cIAP-2) BIR 3 (Homo sapiens, UniProt Q13489).
T3 construct: made in house; host or cells: E. coli DH5-alpha
In words: Fluorescence polarization-based competition assay, cIAP-2 Bir3. Format: binding. An outline of the steps:
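GST-cIAP-2 BIR3 (aa 236-349, E. coli-expressed) at a pre-titrated fixed level, with fluorescein-labelled AVPF-peptide probe and 10-point compound dilutions in 50 mM MES pH 6.5 with BSA. Fluorescence polarization read at Ex 485/Em 535 nm; IC50 from curve fit, Ki derived per Nikolovska-Coleska equation.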

The target in experiment [3] is T4, XIAP Bir2-Bir3-RING (GST-linker BIR2 BIR3RING) (Homo sapiens, UniProt P98170).
T4 construct: made in house; host or cells: E. coli DH5-alpha
Description: Caspase de-repression assay using cellular extracts (apoptosome), XIAP Bir2-Bir3-RING. It counts as biochemical. To be noted: 293 cell S100 extract. As to the method:
100 ug of 293 cell S100 extract and 0.25 uM-2 uM of GST-Xiap fusion protein (GST-BIR 3RING, GST-linker BIR2 BIR3RING) were co-incubated with serial dilutions of compound (0.02 uM-40 uM). Extracts were activated by adding 1 mM dATP, 0.1 mM ALLN, 133 ug Cytochrome C (final concentrations), and incubating at 37° C. for 25 minutes. All reactions and dilutions used S100 buffer (50 mM Pipes pH 7.0, 50 mM KCl, 0.5 mM EGTA pH 8.0, 2 mM MgCl2 supplemented with 1/1000 dilutions of 2 mg/ml Cytochalisin B, 2, mg/ml Chymotstatin, Leupeptin, Pepstatin, Antipain, 0.1M PMSF, 1M DTT). Final reaction volume was 30 ul. Caspase-3 activity was measured by overlaying 30 ul of a 0.4 mM DEVD-AMC solution. AMC cleavage was measured in a TECAN spectrophotometer at 360 nm excitation and 444 nm emission, on a kinetic cycle of 1 hour with readings taken every 5 minutes. Caspase activity was calculated as Vo of AMC fluorescence/sec. Caspase de-repression by our compounds were compared to fully activated extract and activated extract repressed by the presence of XIAP fusion protein.
Results: Compounds were also tested in the apoptosome assay and the linker-BIR2/caspase-3 inhibition assay and found to have IC50s in the following ranges: A: >10 μM; B: <10 μM; C: <1 μM, as shown in Table 7.

For experiment [4], the target named is T5, XIAP Bir3-RING (GST-BIR 3RING) (Homo sapiens, UniProt P98170).
T5 construct: made in house; host or cells: E. coli DH5-alpha
Description: Caspase de-repression assay using cellular extracts (apoptosome), XIAP Bir3-RING. It counts as biochemical. To be noted: 293 cell S100 extract. An outline of the steps:
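293-cell S100 extract with 0.25 uM-2 uM GST-XIAP fusion and compound (0.02 uM-40 uM), activated by 1 mM dATP, 0.1 mM ALLN and cytochrome C at 37° C. for 25 min in pH 7.0 Pipes buffer. Caspase-3 activity read as initial rate of DEVD-AMC cleavage (ex 360/em 444 nm) over 1 h, relative to fully activated and XIAP-repressed extract.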

In another experiment the target is T6, GST-HIAP2 (cIAP-1) BIR 3 (Homo sapiens, UniProt Q13490).
T6 construct: made in house; host or cells: E. coli DH5-alpha
Description: Fluorescence polarization-based competition assay, cIAP-1 Bir3. It counts as binding. The method in brief: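 GST-cIAP-1 BIR3 (aa 251–363, E. coli) at a titrated fixed level, combined with fluorescein-labelled peptide probe and a 10-point compound series in 50 mM MES pH 6.5 with BSA. Polarization read at ex 485/em 535 nm; IC50 fitted, and Ki derived using the Nikolovska-Coleska equation.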

For the next experiment, the system named is XIAP BIR3. In words: Pull-down assay with affinity beads, western blot. Format: binding. To be noted: Method 33A. (In general: In western blotting, separated proteins are transferred to a membrane and probed.)
Another experiment concerns SKOV-3 cell line. In words: Cell survival, SKOV-3 cell line. It counts as cell-based. To be noted: Homo sapiens, SK-OV-3. The method, then:
as §1
Various compounds, including compounds 16, 42, 44, 45, 48, 52, 53, 75, 84 and 89, were tested in the MDA-MB-231 breast derived cell line and found to have EC50 of <5 μM. […] Also, various compounds 175, 176, 177 and 178 were tested against SKOV-3 cell line, and found to have EC50 of <5 μM.

T1 sequence (P98170 246-497): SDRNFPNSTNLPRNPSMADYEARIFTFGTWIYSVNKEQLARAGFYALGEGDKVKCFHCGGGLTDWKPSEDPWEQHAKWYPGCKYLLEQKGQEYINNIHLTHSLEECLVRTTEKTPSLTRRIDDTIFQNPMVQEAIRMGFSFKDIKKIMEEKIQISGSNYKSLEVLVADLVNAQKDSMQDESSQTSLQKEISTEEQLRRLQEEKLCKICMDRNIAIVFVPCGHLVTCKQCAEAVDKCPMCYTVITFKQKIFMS
T6 sequence (Q13490 251-363): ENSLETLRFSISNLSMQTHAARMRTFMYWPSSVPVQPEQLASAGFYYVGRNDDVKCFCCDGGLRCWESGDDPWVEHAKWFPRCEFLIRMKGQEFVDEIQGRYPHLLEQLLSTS
T3 sequence (Q13489 236-349): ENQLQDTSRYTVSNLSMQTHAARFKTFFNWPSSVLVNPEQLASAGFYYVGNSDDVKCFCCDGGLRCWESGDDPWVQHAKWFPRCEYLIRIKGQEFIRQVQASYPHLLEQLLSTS
T5 sequence (P98170 246-497): as the sequence (P98170 246-497) above
T4 sequence (P98170 93-497): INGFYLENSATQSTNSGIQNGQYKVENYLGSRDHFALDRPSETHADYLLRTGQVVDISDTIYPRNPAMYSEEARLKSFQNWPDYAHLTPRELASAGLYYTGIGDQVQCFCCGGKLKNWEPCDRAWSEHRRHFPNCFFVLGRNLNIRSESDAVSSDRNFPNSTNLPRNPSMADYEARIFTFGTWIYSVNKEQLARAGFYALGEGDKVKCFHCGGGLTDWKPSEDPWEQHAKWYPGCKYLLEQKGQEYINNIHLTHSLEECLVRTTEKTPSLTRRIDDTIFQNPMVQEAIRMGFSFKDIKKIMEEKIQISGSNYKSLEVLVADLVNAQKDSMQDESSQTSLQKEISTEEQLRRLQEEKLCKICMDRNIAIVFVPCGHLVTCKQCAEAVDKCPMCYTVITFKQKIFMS
T2 sequence (P98170 93-497): as above

As to `CN[C@@H](C)C(=O)N[C@H](C(=O)N1CCC[C@H]1CN(CCc1ccccc1)C(=O)[C@H](N)Cc1ccc(OC)cc1)C(C)(C)C` [54 bis-HCl], the “Anti-tumor activity in combination with Taxotere” value in the experiment on H460 cells is on record as “anti-tumor activity”. In [1], the “MTT signal in hollow fiber model” value is given as “reduction in MTT signal”.
A word on the EC50: it is the concentration needed to bring the measured effect to its halfway point. One may read the IC50 as the concentration needed to halve the response being measured. A low value points to higher potency. For `CN[C@@H](C)C(=O)N[C@H](C(=O)N1CCC[C@H]1CNCCc1ccccc1)C(C)(C)C` [Compound 16], the EC50 with MDA-MB-231 cells was less than 5000 nM. The IC50 was less than 10000 nM on GST-XIAP BIR3RING; more than 10000 nM in [2]; less than 10000 nM at GST-HIAP1(cIAP-2) BIR 3; more than 10000 nM in [3]; less than 1000 nM in experiment [4]; less than 1000 nM at GST-HIAP2 (cIAP-1) BIR 3.
On to `CN[C@@H](C)C(=O)N[C@H](C(=O)N1CCC[C@H]1CN(CCc1ccccc1)C(=O)CNCc1ccccc1)C(C)(C)C` [Compound 45], for which the EC50 in the experiment on MDA-MB-231 cells was less than 5000 nM. The IC50 at GST-XIAP BIR3RING, at GST-HIAP1(cIAP-2) BIR 3 and at GST-HIAP2 (cIAP-1) BIR 3 was less than 1000 nM each time.
For the compound `CN[C@@H](C)C(=O)N[C@H](C(=O)N1CCC[C@H]1CN(CCc1ccccc1)C(=O)CCCc1ccccc1)C(C)(C)C` [Compound 48], the EC50 in the experiment with MDA-MB-231 cells was less than 5000 nM. Further, the IC50 on GST-XIAP BIR3RING, on GST-HIAP1(cIAP-2) BIR 3 and at GST-HIAP2 (cIAP-1) BIR 3 was less than 1000 nM throughout.
Consider `CN[C@@H](C)C(=O)N[C@H](C(=O)N1CCC[C@H]1CN(CCc1ccccc1)C(=O)[C@@H](Cc1ccccc1)NC)C(C)(C)C` [Compound 52], for which the EC50 in the experiment with MDA-MB-231 cells is less than 5000 nM. Also, the IC50 at GST-XIAP BIR3RING, on GST-HIAP1(cIAP-2) BIR 3 and at GST-HIAP2 (cIAP-1) BIR 3 was less than 1000 nM throughout.
With `CN[C@@H](C)C(=O)N[C@H](C(=O)N1CCC[C@H]1CN(CCc1ccccc1)C(=O)[C@H](N)Cc1ccc(F)cc1)C(C)(C)C` [Compound 53], the EC50 in the experiment on MDA-MB-231 cells was less than 5000 nM. The IC50 on GST-XIAP BIR3RING, on GST-HIAP1(cIAP-2) BIR 3 and on GST-HIAP2 (cIAP-1) BIR 3 was less than 1000 nM each time.
With `CN[C@@H](C)C(=O)N[C@H](C(=O)N1CCC[C@H]1CN(CCc1ccccc1)C(=O)CCCCC1SC[C@@H]2NC(=O)N[C@H]12)C(C)(C)C` (stereo partly drawn) [Compound 168], the “Pull-down of XIAP BIR3 (Western-blot)” value in the experiment with XIAP BIR3 was “XIAP BIR3 was pulled-down”.
Turning to `CN[C@@H](C)C(=O)N[C@H](C(=O)N1CCC[C@H]1CN(CCc1ccccc1)C(=O)c1ccc(C(=O)N(CCc2ccccc2)C[C@@H]2CCCN2C(=O)[C@@H](NC(=O)[C@H](C)NC)C(C)(C)C)cc1)C(C)(C)C` [Compound 175], the EC50 with SKOV-3 cell line was less than 5000 nM.
Same read-out and setting: the value for `CN[C@@H](C)C(=O)N[C@H](C(=O)N1CCC[C@H]1CN(CCc1ccccc1)C(=O)CCCCCCCCC(=O)N(CCc1ccccc1)C[C@@H]1CCCN1C(=O)[C@@H](NC(=O)[C@H](C)NC)C(C)(C)C)C(C)(C)C` [Compound 176] was less than 5000 nM; that for `CN[C@@H](C)C(=O)N[C@H](C(=O)N1CCC[C@H]1CN(CCc1ccccc1)C(=O)CCCC(=O)N(CCc1ccccc1)C[C@@H]1CCCN1C(=O)[C@@H](NC(=O)[C@H](C)NC)C(C)(C)C)C(C)(C)C` [Compound 177] was less than 5000 nM; that for `CN[C@@H](C)C(=O)N[C@H](C(=O)N1CCC[C@H]1CN(CCc1ccccc1)C(=O)c1ccc(-c2ccc(C(=O)N(CCc3ccccc3)C[C@@H]3CCCN3C(=O)[C@@H](NC(=O)[C@H](C)NC)C(C)(C)C)cc2)cc1)C(C)(C)C` [Compound 178] was less than 5000 nM.
